As a reminder, the inhibition is the share of the control response that was lost under treatment.

Test [1] has as its target T1, Aurora kinase C (Homo sapiens) (UniProt Q9UQB9).
T1 sequence (whole entry): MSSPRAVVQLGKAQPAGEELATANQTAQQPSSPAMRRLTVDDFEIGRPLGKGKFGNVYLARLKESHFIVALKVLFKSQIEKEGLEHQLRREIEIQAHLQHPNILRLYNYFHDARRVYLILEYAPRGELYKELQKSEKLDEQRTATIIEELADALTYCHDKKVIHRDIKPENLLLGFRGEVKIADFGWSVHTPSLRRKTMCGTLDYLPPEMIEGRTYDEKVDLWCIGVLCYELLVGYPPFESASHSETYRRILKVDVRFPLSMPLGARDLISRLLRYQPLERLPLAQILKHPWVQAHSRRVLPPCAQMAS
Put plainly: Inhibition of human full length AurC expressed in baculovirus assessed as substrate phosphorylation using fluorescence-labelled peptides as substrate at 0.1 uM after 90 mins by microfluidic peptide phosphorylation assay.

Test [2] deals with Tyrosine-protein kinase ABL1 (Homo sapiens) (UniProt P00519). The note with it: 0.1 uM.
Description: Inhibition of human full-length ABL expressed in baculovirus assessed as substrate phosphorylation using fluorescence-labelled peptides as substrate at 0.1 uM after 90 mins by microfluidic peptide phosphorylation assay
Test [3] has as its target MAP kinase p38 (Homo sapiens) (UniProt O15264+Q15759+Q16539+P53778). The following applies: 0.1 uM.
Description: Inhibition of human full length p38 beta2 expressed in Escherichia coli cell assessed as substrate phosphorylation using fluorescence-labelled peptides as substrate at 0.1 uM after 90 mins by microfluidic peptide phosphorylation assay
Test [4] concerns the target T2, Protein kinase C epsilon type (Homo sapiens) (UniProt Q02156).
T2 sequence (whole entry): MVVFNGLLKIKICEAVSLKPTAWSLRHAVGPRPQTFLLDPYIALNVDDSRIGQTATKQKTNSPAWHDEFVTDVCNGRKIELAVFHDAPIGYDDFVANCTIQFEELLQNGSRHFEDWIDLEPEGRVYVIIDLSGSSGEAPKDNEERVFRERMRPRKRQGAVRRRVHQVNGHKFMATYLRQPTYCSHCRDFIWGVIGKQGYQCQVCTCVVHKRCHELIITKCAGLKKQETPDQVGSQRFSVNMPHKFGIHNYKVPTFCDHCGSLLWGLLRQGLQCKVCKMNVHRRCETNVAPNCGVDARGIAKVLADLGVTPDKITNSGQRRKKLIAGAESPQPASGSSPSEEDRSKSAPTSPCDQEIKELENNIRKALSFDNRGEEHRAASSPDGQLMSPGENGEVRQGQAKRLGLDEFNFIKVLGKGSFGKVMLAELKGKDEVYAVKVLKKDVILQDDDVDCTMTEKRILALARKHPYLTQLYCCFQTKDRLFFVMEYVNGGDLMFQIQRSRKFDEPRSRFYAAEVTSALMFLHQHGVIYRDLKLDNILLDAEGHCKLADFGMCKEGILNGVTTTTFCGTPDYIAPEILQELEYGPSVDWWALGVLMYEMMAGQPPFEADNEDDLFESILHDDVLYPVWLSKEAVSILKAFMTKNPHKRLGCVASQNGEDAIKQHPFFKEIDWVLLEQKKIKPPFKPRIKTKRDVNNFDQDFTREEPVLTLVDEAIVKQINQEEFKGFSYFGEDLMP
Nature of the test: Inhibition of human truncated PKC epsilon expressed in baculovirus assessed as substrate phosphorylation using fluorescence-labelled peptides as substrate at 0.06 uM after 90 mins by microfluidic peptide phosphorylation assay.

Test [5] addresses Protein kinase C alpha type (Homo sapiens) (UniProt P17252). Nature of the test: Inhibition of human truncated PKC alpha expressed in baculovirus assessed as substrate phosphorylation using fluorescence-labelled peptides as substrate at 0.06 uM after 90 mins by microfluidic peptide phosphorylation assay.
Test [6] addresses T3, Testis-specific serine/threonine-protein kinase 2 (Homo sapiens) (UniProt Q96PF2).
T3 sequence (whole entry): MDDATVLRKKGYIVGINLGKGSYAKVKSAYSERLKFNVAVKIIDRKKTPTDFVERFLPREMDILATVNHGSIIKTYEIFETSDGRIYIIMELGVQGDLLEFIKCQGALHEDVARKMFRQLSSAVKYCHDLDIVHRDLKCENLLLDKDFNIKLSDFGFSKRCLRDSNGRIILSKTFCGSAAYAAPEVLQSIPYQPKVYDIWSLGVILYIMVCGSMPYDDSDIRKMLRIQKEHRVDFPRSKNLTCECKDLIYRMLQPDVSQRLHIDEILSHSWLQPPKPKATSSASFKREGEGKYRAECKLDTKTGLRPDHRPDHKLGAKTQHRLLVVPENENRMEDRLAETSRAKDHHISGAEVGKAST
Put plainly: Inhibition of human full length TSSK2 expressed in baculovirus assessed as substrate phosphorylation using fluorescence-labelled peptides as substrate at 0.06 uM after 90 mins by microfluidic peptide phosphorylation assay.

Test [7] deals with T4, Protein kinase C zeta type (Homo sapiens) (UniProt Q05513).
T4 sequence (whole entry): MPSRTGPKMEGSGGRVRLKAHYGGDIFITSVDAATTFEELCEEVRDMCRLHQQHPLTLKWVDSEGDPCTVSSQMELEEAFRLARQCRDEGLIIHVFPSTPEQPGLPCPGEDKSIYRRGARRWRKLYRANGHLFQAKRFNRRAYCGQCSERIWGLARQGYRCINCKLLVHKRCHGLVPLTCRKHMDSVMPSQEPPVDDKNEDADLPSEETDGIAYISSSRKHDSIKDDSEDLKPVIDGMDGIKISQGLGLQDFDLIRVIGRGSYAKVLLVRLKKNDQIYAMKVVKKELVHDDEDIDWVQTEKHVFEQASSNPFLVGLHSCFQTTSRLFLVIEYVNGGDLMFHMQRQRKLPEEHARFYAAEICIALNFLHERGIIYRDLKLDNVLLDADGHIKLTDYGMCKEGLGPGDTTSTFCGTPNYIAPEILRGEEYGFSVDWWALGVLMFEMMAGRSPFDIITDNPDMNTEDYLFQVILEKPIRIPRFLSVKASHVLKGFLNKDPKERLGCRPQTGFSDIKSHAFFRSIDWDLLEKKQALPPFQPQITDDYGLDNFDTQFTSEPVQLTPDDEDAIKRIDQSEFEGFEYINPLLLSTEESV
Put plainly: Inhibition of human full length PKC zeta expressed in baculovirus assessed as substrate phosphorylation using fluorescence-labelled peptides as substrate at 70 uM after 90 mins by microfluidic peptide phosphorylation assay.

The target of test [8] is Tyrosine-protein kinase ABL1 (Homo sapiens) (UniProt P00519). Nature of the test: Inhibition of human full-length ABL expressed in baculovirus assessed as substrate phosphorylation using fluorescence-labelled peptides as substrate at 2 uM after 90 mins by microfluidic peptide phosphorylation assay.
Test [9] has as its target T3, Testis-specific serine/threonine-protein kinase 2 (Homo sapiens). Put plainly: Inhibition of human full length TSSK2 expressed in baculovirus assessed as substrate phosphorylation using fluorescence-labelled peptides as substrate at 95 uM after 90 mins by microfluidic peptide phosphorylation assay.
Test [10] concerns the target Fibroblast growth factor receptor 1 (Homo sapiens) (UniProt P11362). Nature of the test: Inhibition of human FGFR1 catalytic domain expressed in baculovirus assessed as substrate phosphorylation using fluorescence-labelled peptides as substrate at 1000 uM after 90 mins by microfluidic peptide phosphorylation assay.
Test [11] relates to Tyrosine-protein kinase ABL1 (Homo sapiens), P00519 [H396P]. Nature of the test: Inhibition of human truncated ABL H396P mutant expressed in baculovirus assessed as substrate phosphorylation using fluorescence-labelled peptides as substrate at 1000 uM after 90 mins by microfluidic peptide phosphorylation assay.

Chain of Fibroblast growth factor receptor 1 (Homo sapiens) (P11362 22-822 limits assumed): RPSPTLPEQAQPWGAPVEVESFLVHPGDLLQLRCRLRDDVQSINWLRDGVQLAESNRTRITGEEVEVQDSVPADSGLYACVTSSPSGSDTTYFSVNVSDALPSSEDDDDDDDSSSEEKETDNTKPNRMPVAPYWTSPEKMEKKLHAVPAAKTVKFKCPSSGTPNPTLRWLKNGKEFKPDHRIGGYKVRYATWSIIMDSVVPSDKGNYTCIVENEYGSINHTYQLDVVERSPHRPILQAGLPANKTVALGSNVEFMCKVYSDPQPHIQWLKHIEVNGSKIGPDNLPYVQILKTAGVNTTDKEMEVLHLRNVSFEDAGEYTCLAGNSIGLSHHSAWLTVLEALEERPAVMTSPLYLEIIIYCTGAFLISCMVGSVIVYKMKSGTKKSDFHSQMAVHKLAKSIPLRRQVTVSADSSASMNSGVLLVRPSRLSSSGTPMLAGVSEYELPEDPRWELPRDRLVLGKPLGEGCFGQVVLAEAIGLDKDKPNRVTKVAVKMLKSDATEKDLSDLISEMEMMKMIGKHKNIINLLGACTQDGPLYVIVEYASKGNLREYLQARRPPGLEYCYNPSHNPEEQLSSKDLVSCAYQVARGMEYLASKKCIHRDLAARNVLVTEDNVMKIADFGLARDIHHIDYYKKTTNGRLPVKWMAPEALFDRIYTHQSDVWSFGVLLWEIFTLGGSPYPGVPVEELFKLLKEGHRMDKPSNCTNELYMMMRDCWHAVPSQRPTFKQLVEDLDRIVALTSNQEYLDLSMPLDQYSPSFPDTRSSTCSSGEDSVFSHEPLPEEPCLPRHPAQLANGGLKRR

As to `C[C@H](CN(C)C)Oc1nc(Nc2cc3cccc(Cl)c3cn2)cnc1C#N`, the inhibition came to 1% in [1], 0% in test [2] and 0% in test [3].
`NC1(Cc2ccc(Cl)cc2)CCN(c2ncnc3[nH]ccc23)CC1`: the inhibition in test [4] was 1.5%; in [5] it was 30%; in [6], 3%.
Take `CNCc1ccc(-c2ncnc3[nH]cnc23)cc1`: the inhibition in test [7] stood at 0%.
Take `NC1CCN(c2ncnc3[nH]ccc23)CC1`: in test [8], the inhibition turned out to be 13.5%.
Take `NCCc1ccc(-c2ncnc3[nH]cnc23)cc1`: the inhibition in [9] was 23.5%.
For `c1cnc2[nH]ccc2c1`, the inhibition worked out at 64.5% in [10] and 44.5% in test [11].
